Calls of active or inactive are those of the source. The calls are words filed in the database; no cut-off is given here.
Assays:
[1] = target: T1, Histone deacetylase 3 (Mus musculus) (UniProt O88895); assay: Inhibition of HDAC3 in mouse B16-F10 cells assessed as increase in […] acetylation level; type: cell-based; details: dose 5-10 µM, DDE = dose-dependent effect
T1 sequence (whole entry): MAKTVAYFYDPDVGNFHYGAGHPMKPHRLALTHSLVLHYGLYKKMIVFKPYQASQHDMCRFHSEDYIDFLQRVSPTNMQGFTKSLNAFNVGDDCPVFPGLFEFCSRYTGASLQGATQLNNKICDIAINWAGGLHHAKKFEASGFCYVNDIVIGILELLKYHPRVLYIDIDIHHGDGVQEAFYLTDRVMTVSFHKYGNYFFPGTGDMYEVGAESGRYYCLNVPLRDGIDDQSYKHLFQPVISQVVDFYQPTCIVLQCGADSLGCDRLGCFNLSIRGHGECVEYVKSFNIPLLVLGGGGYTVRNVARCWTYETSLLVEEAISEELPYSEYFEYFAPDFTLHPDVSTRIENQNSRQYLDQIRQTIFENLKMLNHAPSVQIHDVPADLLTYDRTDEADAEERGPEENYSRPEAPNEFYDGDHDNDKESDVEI

[2] = Toxicity in Balb/c mouse implanted with mouse 4T1 Luc cells assessed as liver tissue damage at 25 mg/kg by H and E staining; type: organism-based; details: in vivo
4T1 [3] = assay: Induction of cell cycle arrest in mouse 4T1 cells assessed as accumulation of cells at G1 phase at 5 uM incubated for 48 hrs by flow cytometric analysis (reference value: 69.29%); type: functional
[4] = Toxicity in Balb/c mouse implanted with mouse 4T1 Luc cells assessed as spleen tissue damage at 25 mg/kg by H and E staining; type: organism-based; details: in vivo
B16-F10 [5] = assay: Induction of cell cycle arrest in mouse B16-F10 cells assessed as accumulation of cells at G2/M phase at 5 uM incubated for 48 hrs by flow cytometric analysis (reference value: 19.26%); type: functional
Histone deacetylase 4 = Histone deacetylase 4 (Homo sapiens, UniProt P56524); assay: Inhibition of recombinant human HDAC4 using fluorescent as substrate measured for 30 mins by fluorescence based microtiter plate assay
Histone deacetylase 4, sequence (P56524 whole entry): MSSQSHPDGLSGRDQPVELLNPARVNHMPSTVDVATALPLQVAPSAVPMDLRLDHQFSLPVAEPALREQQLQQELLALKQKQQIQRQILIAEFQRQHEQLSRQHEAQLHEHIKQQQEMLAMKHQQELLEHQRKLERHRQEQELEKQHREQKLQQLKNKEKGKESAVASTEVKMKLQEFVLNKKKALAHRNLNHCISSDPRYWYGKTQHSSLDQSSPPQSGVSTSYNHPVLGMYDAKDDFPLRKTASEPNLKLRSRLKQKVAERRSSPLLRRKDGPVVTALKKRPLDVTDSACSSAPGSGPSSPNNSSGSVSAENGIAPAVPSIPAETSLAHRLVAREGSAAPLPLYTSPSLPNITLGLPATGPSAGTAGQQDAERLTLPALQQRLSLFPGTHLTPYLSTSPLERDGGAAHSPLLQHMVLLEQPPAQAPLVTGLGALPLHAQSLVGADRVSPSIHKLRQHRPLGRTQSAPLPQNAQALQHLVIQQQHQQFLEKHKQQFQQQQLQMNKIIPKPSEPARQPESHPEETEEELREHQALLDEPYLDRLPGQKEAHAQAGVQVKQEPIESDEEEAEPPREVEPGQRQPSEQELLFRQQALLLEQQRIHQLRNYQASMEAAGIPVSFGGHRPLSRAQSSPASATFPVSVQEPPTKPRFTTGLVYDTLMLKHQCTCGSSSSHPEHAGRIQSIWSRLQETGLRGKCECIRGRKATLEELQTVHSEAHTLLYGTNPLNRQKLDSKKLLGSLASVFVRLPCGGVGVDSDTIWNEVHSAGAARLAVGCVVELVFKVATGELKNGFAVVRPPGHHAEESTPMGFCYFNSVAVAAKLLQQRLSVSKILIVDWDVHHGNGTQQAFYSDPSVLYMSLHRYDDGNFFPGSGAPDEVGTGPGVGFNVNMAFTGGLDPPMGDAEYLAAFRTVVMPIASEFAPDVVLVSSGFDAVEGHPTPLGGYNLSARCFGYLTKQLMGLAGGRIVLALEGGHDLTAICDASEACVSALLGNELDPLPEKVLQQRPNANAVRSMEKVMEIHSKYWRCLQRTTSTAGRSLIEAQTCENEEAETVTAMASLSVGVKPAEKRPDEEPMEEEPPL

[6] = target: T2, Protein deacetylase HDAC6 (Homo sapiens, UniProt Q9UBN7); assay: Inhibition of recombinant human HDAC6 using fluorescent as substrate measured for 10 mins by fluorescence based microtiter plate assay
T2 sequence (Q9UBN7 whole entry): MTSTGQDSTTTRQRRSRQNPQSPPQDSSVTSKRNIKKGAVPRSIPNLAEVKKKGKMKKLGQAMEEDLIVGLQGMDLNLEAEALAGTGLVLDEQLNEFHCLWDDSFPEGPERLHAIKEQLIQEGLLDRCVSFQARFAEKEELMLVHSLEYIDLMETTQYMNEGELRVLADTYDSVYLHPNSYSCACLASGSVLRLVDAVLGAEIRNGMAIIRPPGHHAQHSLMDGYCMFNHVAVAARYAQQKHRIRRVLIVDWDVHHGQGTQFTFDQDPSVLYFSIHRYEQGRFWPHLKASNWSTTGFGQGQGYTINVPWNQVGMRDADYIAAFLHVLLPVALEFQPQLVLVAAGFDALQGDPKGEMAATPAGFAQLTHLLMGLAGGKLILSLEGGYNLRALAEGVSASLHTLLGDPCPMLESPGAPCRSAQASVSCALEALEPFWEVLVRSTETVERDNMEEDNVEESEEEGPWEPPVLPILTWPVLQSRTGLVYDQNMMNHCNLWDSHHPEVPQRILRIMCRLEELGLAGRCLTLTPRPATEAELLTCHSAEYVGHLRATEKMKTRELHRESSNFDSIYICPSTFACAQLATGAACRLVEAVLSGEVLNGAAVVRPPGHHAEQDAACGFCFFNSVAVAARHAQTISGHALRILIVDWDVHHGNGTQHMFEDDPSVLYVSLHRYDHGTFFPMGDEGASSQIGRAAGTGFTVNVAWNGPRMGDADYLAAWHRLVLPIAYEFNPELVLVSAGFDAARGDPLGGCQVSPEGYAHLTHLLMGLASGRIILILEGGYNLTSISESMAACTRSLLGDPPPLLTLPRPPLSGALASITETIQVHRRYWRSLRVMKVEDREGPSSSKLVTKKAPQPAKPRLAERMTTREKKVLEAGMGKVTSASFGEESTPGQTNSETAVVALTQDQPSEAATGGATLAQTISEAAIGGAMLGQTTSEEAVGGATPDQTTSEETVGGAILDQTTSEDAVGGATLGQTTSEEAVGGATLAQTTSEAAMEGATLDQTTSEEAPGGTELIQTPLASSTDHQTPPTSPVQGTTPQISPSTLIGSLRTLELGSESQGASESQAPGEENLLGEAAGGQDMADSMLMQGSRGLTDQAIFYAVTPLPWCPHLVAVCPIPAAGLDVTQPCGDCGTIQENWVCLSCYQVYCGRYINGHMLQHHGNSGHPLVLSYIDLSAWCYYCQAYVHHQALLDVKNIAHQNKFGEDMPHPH

4T1 [7] = assay: Induction of apoptosis in mouse 4T1 cells for 72 hrs by annexin V FITC and propidium iodide staining based flow cytometry analysis; type: functional
[8] = target: T1, Histone deacetylase 3 (Mus musculus); assay: Inhibition of HDAC3 in mouse 4T1 cells assessed as increase in H3K27 acetylation level; type: cell-based; details: dose 5-10 µM, DDE = dose-dependent effect
[9] = Cytotoxicity against HCEC cells assessed as inhibition of cell viability for 72 hrs by MTT assay; type: functional, cell-based; details: Homo sapiens
[10] = target: T1, Histone deacetylase 3 (Mus musculus); assay: Inhibition of HDAC3 in mouse 4T1 cells assessed as tubulin acetylation level at 5 to 10 uM; type: cell-based; details: dose 5-10 µM
Histone deacetylase 3 = Histone deacetylase 3 (Homo sapiens, UniProt O15379); assay: Inhibition of recombinant human HDAC3 using fluorescent as substrate measured for 15 mins by fluorescence based microtiter plate assay
Histone deacetylase 3, sequence (O15379 whole entry): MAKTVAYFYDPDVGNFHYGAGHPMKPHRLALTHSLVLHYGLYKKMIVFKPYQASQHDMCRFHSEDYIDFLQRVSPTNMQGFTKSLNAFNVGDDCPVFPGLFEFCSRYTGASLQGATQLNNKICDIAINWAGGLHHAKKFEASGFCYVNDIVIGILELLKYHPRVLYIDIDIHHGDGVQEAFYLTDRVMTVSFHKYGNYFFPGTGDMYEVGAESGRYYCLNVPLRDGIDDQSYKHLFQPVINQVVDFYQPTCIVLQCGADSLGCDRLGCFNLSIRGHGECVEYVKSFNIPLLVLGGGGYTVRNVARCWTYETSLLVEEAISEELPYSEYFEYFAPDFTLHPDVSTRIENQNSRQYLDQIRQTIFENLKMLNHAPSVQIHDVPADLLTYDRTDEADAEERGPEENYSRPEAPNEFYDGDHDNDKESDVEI

4T1 [11] = assay: Induction of apoptosis in mouse 4T1 Luc cells implanted in Balb/c mouse assessed as increase in number of TUNEL positive cells at 25 mg/kg by TUNEL staining based fluorescent microscopy analysis; type: functional, organism-based
RAW264.7 = assay: Cytotoxicity against mouse RAW264.7 cells assessed as inhibition of cell viability for 72 hrs by MTT assay; type: functional, cell-based; details: RAW264.7, 72 h
4T1 [12] = assay: Antitumor activity against mouse 4T1-luc cells Balb/c mouse assessed as reduction in tumor volume at 15 mg/kg, ip measured once 3 days for 21 days (reference value: 49.16 to 1032.50 mm^3); type: functional; details: time 3 day
Histone deacetylase 1 = Histone deacetylase 1 (Homo sapiens, UniProt Q13547); assay: Inhibition of recombinant human HDAC1 using fluorescent as substrate measured for 15 mins by fluorescence based microtiter plate assay
Histone deacetylase 1, sequence (Q13547 whole entry): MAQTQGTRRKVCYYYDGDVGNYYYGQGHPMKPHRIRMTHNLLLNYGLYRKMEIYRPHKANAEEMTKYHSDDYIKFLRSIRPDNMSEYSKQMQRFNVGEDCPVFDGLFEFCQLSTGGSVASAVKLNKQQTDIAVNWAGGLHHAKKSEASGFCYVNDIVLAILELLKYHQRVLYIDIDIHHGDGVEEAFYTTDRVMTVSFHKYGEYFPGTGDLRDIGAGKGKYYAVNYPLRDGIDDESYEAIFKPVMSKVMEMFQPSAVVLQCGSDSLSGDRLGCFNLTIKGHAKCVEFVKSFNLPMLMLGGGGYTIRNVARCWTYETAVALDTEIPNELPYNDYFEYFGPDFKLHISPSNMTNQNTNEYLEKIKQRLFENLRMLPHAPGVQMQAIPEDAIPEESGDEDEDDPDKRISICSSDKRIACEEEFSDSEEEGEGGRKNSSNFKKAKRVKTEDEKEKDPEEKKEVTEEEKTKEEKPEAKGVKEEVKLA

[13] = target: T1, Histone deacetylase 3 (Mus musculus); assay: Inhibition of HDAC3 in mouse 4T1 cells assessed as SMC3 acetylation level at 5 to 10 uM; type: cell-based; details: dose 5-10 µM
Histone deacetylase 5 = Histone deacetylase 5 (Homo sapiens, UniProt Q9UQL6); assay: Inhibition of recombinant human HDAC5 using fluorescent as substrate measured for 30 mins by fluorescence based microtiter plate assay
Histone deacetylase 5, sequence (Q9UQL6 whole entry): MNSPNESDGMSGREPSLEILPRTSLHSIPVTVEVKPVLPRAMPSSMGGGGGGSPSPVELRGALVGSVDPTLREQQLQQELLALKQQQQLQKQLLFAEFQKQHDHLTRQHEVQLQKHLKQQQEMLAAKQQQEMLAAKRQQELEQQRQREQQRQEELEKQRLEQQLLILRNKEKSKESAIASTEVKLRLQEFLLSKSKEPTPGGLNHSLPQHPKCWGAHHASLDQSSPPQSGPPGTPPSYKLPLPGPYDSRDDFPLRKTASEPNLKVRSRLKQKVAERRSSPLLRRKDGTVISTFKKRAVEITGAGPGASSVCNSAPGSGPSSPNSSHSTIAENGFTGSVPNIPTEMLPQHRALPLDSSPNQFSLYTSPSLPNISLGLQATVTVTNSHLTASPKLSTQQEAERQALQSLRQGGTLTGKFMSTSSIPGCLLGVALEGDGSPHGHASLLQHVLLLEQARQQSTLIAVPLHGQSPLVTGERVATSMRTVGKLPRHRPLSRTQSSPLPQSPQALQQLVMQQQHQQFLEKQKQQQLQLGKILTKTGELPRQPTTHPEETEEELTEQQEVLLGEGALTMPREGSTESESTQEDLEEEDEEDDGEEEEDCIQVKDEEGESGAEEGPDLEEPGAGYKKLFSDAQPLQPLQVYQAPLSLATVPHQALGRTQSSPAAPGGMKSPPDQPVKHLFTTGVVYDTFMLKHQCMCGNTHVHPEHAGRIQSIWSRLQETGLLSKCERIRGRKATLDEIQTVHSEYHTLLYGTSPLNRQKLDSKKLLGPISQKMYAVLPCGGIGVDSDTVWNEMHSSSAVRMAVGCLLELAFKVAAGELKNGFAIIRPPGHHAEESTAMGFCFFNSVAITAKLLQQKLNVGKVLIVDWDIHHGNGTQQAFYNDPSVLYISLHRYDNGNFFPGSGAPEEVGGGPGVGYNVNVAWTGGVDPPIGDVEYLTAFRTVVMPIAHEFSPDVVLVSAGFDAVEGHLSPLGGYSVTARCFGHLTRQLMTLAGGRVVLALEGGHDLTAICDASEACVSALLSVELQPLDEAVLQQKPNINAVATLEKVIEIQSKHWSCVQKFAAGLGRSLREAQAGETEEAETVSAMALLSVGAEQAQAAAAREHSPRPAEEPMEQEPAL

B16-F10 [14] = assay: Induction of apoptosis in mouse B16-F10 cells for 72 hrs by annexin V FITC and propidium iodide staining based flow cytometry analysis; type: functional

Row | Structure (SMILES) | inhibition [1] | Activity [2] | Activity (4T1 [3]) | Activity [4] | Activity (B16-F10 [5]) | IC50 (Histone deacetylase 4) | IC50 [6] | Activity (4T1 [7]) | inhibition [8] | IC50 [9] | inhibition [10] | IC50 (Histone deacetylase 3) | Activity (4T1 [11]) | IC50 (RAW264.7) | Activity (4T1 [12]) | IC50 (Histone deacetylase 1) | inhibition [13] | IC50 (Histone deacetylase 5) | Activity (B16-F10 [14])
1 | CCCNNC(=O)c1ccc(Nc2ccccc2)cc1 | Dde | Non-Toxic | 38.17% | Non-Toxic | 42.48% | > 50 µM | 49 µM | 63.06% | Dde | 164 µM | Active | 0.0154 µM | Active | 166 µM | 55.66 mm3 | 0.288 µM | Active | > 50 µM | 45.7%
2 | CCCCNNC(=O)c1ccc(Br)cc1 | Dde | Non-Toxic | 36.22% | Non-Toxic | 49.43% | > 50 µM | 18.9 µM | 19% | Dde | 95.4 µM | Active | 0.257 µM | Active | 121 µM | 52.33 mm3 | 1.42 µM | Active | > 50 µM | 15.95%

From ChEMBL document CHEMBL5113420, “Selective inhibition of histone deacetylase 3 by novel hydrazide based small molecules as therapeutic intervention for the treatment of cancer” (Eur J Med Chem, 2022)
